Laboratory results taken from article PMC3471028, “A Laccase with Antiproliferative and HIV-I Reverse Transcriptase Inhibitory Activities from the Mycorrhizal Fungus Agaricus placomyces” (Journal of Biomedicine and Biotechnology, 2012).
Counter-ions that a name gives are not always drawn.

Tested on: T1, A. placomyces laccase
T1 construct: gene EC 1.10.3.2; native, purified from fruiting bodies; 68 kDa monomer
Test: spectrophotometric oxidation assay, Lineweaver-Burk plot
Format: biochemical, Agaricus placomyces
Settings: 50 mM sodium acetate, pH 5.2, 30°C

Row | Compound | Km
1 | CCn1c(=NN=c2sc3cc(S(=O)(=O)O)ccc3n2CC)sc2cc(S(=O)(=O)O)ccc21 [ABTS, 2,7′-azinobis[3-ethylbenzothiazolone-6-sulfonic acid] diammonium salt] | 775 µM
2 | Oc1ccc(O)cc1 [hydroquinone] | 392 µM
